# System: PKC mediated IL-2 production
# Experiment: IL-2 ELISA, human primary T cell, anti CD3+CD28+
# Assay type: cell-based
# Details: Homo sapiens, T-cell, 24 h, human primary T cells stimulated with αCD3 and αCD28, 24 hours
# Method in brief: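 IL-2 was quantified by ELISA in 24 h supernatants from primary human T cells given a 1 h compound pre-treatment at 37° C. These cells had been expanded from blood mononuclear cells on αCD3/αCD28 with IL-2, and the IL-2 was removed by washing. Stimulation used plate-bound αCD3 ([…]) plus αCD28 (5 μg/ml); the counter assay used PMA (0.5 ng/ml) with ionomycin (0.1 uM) instead.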
row,Structure (SMILES),EC50 [µM]
1,"[2H]C1(Oc2ccc(Nc3ncc(F)c(N[C@H]4CCN5[C@@H](CCC5(C)C)C4)n3)cc2Cl)CC(OCc2ccccc2)C1 (stereo partly drawn) [Compound 311, N2-(4-(3-(benzyloxy)cyclobutoxy-1-d)-3-chlorophenyl)-N4-((7S,8aS)-3,3-dimethyloctahydroindolizin-7-yl)-5-fluoropyrimidine-2,4-diamine]",1 to 10
2,"C[C@@H](O)COc1cc(F)c(Nc2ncc(C#N)c(N[C@@H]3C[C@@H]4CCCN4C(C)(C)C3)n2)cc1-n1nnn(C)c1=O [Compound 314, 4-((7R,8aS)-octahydro-5,5-dimethylindolizin-7-ylamino)-2-(4-((R)-2-hydroxypropoxy)-2-fluoro-5-(4,5-dihydro-4-methyl-5-oxotetrazol-1-yl)phenylamino)pyrimidine-5-carbonitrile]",0.1 to 0.5
3,CN1C(=O)COc2ccc(Nc3ncc(F)c(N[C@@H]4C[C@@H]5CCCN5C(C)(C)C4)n3)cc21 [Compound 315],1 to 10
4,"COCC1(COC)Oc2ccc(Nc3ncc(F)c(N[C@@H]4C[C@@H]5CCCN5C(C)(C)C4)n3)cc2-n2nnnc21 [Compound 316, N^2-(4,5-dihydro-4,4-bis(methoxymethyl)tetrazolo[5,1-c][1,4]benzoxazin-8-yl)-N^4-((7R,8aS)-octahydro-5,5-dimethylindolizin-7-yl)-5-fluoropyrimidin-2,4-diamine]",< 0.1
5,COCCN1C(=O)C(C)(C)Oc2ccc(Nc3ncc(F)c(N[C@@H]4C[C@@H]5CCCN5C(C)(C)C4)n3)cc21 [Compound 319],1 to 10
6,"CC1(C)C[C@H](Nc2nc(Nc3ccc(NCC(O)CCl)c(C(F)(F)F)c3)ncc2F)C[C@@H]2CCCN21 (stereo partly drawn) [Compound 321, 1-(4-(4-((7R,8aS)-octahydro-5,5-dimethylindolizin-7-ylamino)-5-fluoropyrimidin-2-ylamino)-2-(trifluoromethyl)phenylamino)-3-chloropropa-2-ol]",0.1 to 0.5
7,"Cn1nnn(-c2cc(Nc3ncc(F)c(N[C@@H]4C[C@@H]5CCCN5C(C)(C)C4)n3)c(F)cc2OCC(N)=O)c1=O [Compound 322, 2-(4-(4-((7R,8aS)-octahydro-5,5-dimethylindolizin-7-ylamino)-5-fluoropyrimidin-2-ylamino)-5-fluoro-2-(4,5-dihydro-4-methyl-5-oxotetrazol-1-yl)phenoxy)acetamide]",0.1 to 0.5

# Further lines, results first:
row,EC50 [µM],Structure (SMILES)
1,0.1 to 0.5,"CC1(C)CC[C@H]2C[C@@H](Nc3nc(Nc4ccc(OC5CC(O)C5)c(Cl)c4)ncc3F)CCN21 (stereo partly drawn) [Compound 312, 3-(2-Chloro-4-((4-(((7S,8aS)-3,3-dimethyloctahydroindolizin-7-yl)amino)-5-fluoropyrimidin-2-yl)amino)phenoxy)cyclobutan-1-ol]"
2,0.1 to 0.5,"[2H]C1(Oc2ccc(Nc3ncc(F)c(N[C@H]4CCN5[C@@H](CCC5(C)C)C4)n3)cc2Cl)CC(O)C1 (stereo partly drawn) [Compound 313, 3-(2-Chloro-4-((4-(((7S,8aS)-3,3-dimethyloctahydroindolizin-7-yl)amino)-5-fluoropyrimidin-2-yl)amino)phenoxy)cyclobutan-3-d-1-ol]"
3,0.5 to 1,CN1C(=O)C(C)(C)Oc2ccc(Nc3ncc(F)c(N[C@@H]4C[C@@H]5CCCN5C(C)(C)C4)n3)cc21 [Compound 318]
4,0.1 to 0.5,COC(=O)c1ccc(Nc2ncc(F)c(N[C@@H]3C[C@@H]4CCCN4C(C)(C)C3)n2)cc1C(F)(F)F [Compound 320]
5,1 to 10,"CC(C)OC(=O)COc1cc(F)c(Nc2ncc(F)c(N[C@@H]3C[C@@H]4CCCN4C(C)(C)C3)n2)cc1-n1nnn(C)c1=O [Compound 323, isopropyl 2-(4-(4-((7R,8aS)-octahydro-5,5-dimethylindolizin-7-ylamino)-5-fluoropyrimidin-2-ylamino)-5-fluoro-2-(4,5-dihydro-4-methyl-5-oxotetrazol-1-yl)phenoxy)acetate]"
6,0.5 to 1,"CC1(C)C[C@H](Nc2nc(Nc3ccc(N4CC(C(N)=O)C4)c(C(F)(F)F)c3)ncc2F)C[C@@H]2CCCN21 [Compound 324, 1-(4-(4-((7R,8aS)-octahydro-5,5-dimethylindolizin-7-ylamino)-5-fluoropyrimidin-2-ylamino)-2-(trifluoromethyl)phenyl)azetidine-3-carboxamide]"
7,0.5 to 1,"CC1(C)C[C@H](Nc2nc(Nc3ccc(NCC(CCl)C(N)=O)c(C(F)(F)F)c3)ncc2F)C[C@@H]2CCCN21 (stereo partly drawn) [Compound 325, 1-(4-(4-((7R,8aS)-octahydro-5,5-dimethylindolizin-7-ylamino)-5-fluoropyrimidin-2-ylamino)-24(2-trifluoromethylphenylamino)methyl)-3-chloropropanamide]"
8,0.1 to 0.5,"CC1(C)C[C@H](Nc2nc(Nc3ccc(N4CC(O)C4)c(C(F)(F)F)c3)ncc2F)C[C@@H]2CCCN21 [Compound 326, 1-(4-(4-((7R,8aS)-octahydro-5,5-dimethylindolizin-7-ylamino)-5-fluoropyrimidin-2-ylamino)-2-(trifluoromethyl)phenyl)azetidin-3-ol]"
9,0.5 to 1,"CNC(=O)c1ccc(Nc2ncc(F)c(N[C@@H]3C[C@@H]4CCCN4C(C)(C)C3)n2)cc1Cl [Compound 327, 4-(4-((7R,8aS)-octahydro-5,5-dimethylindolizin-7-ylamino)-5-fluoropyrimidin-2-ylamino)-2-chloro-N-methylbenzamide]"
10,1 to 10,"Cn1nnn(-c2cc(Nc3ncc(F)c(N[C@@H]4C[C@@H]5CCCN5C(C)(C)C4)n3)ccc2N2CC(O)C2)c1=O [Compound 328, 1-(5-(4-((7R,8aS)-octahydro-5,5-dimethylindolizin-7-ylamino)-5-fluoropyrimidin-2-ylamino)-2-(3-hydroxyazetidin-1-yl)phenyl)-4-methyl-1H-tetrazol-5(4H)-one]"
